Reference: US12649734B2, “Bioavailable protein disulfide isomerase inhibitors” (THE CLEVELAND CLINIC FOUNDATION, priority 2020, dated 2026)

What was measured:
[1] = test system: RPMI-8226 cells vs CD34+ HSPCs derived from healthy bone marrow; experiment: In vitro colony-forming assay, myeloma cells versus normal bone marrow CD34+ cells; assay type: cell-based, human; details: colonies scored on day 14
Method: In vitro colony-forming assays: Mononuclear cells derived from bone marrow or purified CD34+ cells from a healthy donor, cord blood, or MM cell RPMI-8226 were grown in semi-solid methylcellulose media (MethoCult™, H4435; STEMCELL Technologies) in the presence of indicated compounds and concentrations. A total of 10,000/mL normal bone marrow CD34+ cells and 1000/mL RPMI-8226 cells were plat-ed, and colonies were scored on day 14.

MM1.S cells [2] = experiment: RNA-seq gene expression profiling; assay type: cell-based, human; details: 3 μM, 6 h
Method: FIGS. 7A-7H provide graphs showing CCF642-34 is selective for PDIA1 inhibition-induced ER stress response pathway. MM1.S cells were treated with 3 μM of either CCF642 or CCF642-34 for 6 h, and gene expression analysis was performed by RNA sequencing. (A,B) Volcano plots showing CCF642-34 and CCF642 compared to DMSO control. The criteria for differential expression were at least a 2-fold change with p value less than 0.05. The analysis was performed in Originlab, Version 2019b (OriginLab Corporation, Northampton, MA, USA). […] The diagram was generated using a web-based bioinformatics server. (D,E) Hierarchical clusterings with heat map of MM1.S cells treated with vehicle CCF642-34 or CCF642 are shown for response to endoplasmic reticulum stress and unfolded protein response gene sets. (F-H) Heat maps of PERK and ATF6 target genes, Nrf2, and ER-associated degradation (ERAD) pathways are compared between control and inhibitor-treated MM1.S cells. Data analysis was performed using a web-based server and the Broad Institute Morpheus software.
RNA-seq and analysis: MM1.S cells were treated with 3 μM of either CCF642 or CCF642-34 for 6 h, and RNA was purified by using the NucleoSpin RNA kit (Takara Bio USA, Inc.; cat. #740955) according to the manufacturer's instruction. The RNA sequencings were completed as reported previously. Guan et al., Commun. Biol., 3, 1-13 (2020) The RNA-seq data were sub-mitted to the Gene Expression Omnibus (GEO) repository at the National Center for Biotechnology Information (NCBI) archives, with assigned GEO accession number GSE167097.

PDIA1 = PDIA1 (Homo sapiens, UniProt P07237); details: cited from earlier work
PDIA1, sequence (P07237 18-508): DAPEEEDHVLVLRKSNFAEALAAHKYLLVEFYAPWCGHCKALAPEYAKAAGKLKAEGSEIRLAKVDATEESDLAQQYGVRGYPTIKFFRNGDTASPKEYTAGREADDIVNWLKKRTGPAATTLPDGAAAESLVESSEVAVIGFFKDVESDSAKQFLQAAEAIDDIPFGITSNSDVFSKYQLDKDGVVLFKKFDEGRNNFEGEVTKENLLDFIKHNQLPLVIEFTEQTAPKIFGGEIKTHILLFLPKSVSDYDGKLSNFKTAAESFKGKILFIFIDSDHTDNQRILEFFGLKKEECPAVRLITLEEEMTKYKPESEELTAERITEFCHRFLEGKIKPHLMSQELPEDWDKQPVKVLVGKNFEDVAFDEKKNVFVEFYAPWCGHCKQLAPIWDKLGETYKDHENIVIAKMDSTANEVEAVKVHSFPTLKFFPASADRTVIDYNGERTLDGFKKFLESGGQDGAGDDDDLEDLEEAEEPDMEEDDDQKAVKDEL

PDI = PDI (Homo sapiens, UniProt P07237); details: reported previously; cited from earlier work
PDI, sequence (P07237 18-508): as above

[3] = Solubility in aqueous buffer (turbidity assay); assay type: physicochemical
Description: To improve its solubility, potency, and selectivity, the inventors used the CCF642 binding space in the catalytic site for in silico modeling and mapped the binding site to the helix-turn-helix motif composed of the WCGHCK binding site in the aa′ and bb′ domains of the PDIA1 active site (FIG. 4A,B). […] The inventors chose to accomplish this by attaching a 3-carbon flexible linker with a terminal primary amino group to the corresponding phenol followed by coupling to desired L-amino acids (FIGS. 1, 2, 4A). The N-BOC penultimate intermediates were purified using flash silica gel chromatography and then deprotected using 4N HCl in dioxane to generate the corresponding hydrochloride (HCL) salts. The compounds for testing were fully characterized by ^1H, ^13C NMR and high-resolution mass spectroscopy.

MM1.S cells [4] = experiment: Cell viability assay (CellTiter-Glo), MM1.S; assay type: cell-based, human; details: Homo sapiens; MM1.S.luc; read-out: IC50 concentration
Method: Cell vi-ability and LD50 for inhibitors were measured in 96 well culture plates (2×10^4 cells/well) after 72 h of treatment using CellTiter-Glo® Luminescent Cell Viability Assay (Promega, Madison, WI, USA). (A) Cell survival assay with MM1.S.luc and BTZ-resistant MM1.S.luc cells. […] (C) Comparison of PDIA1 protein levels in MM1.S.luc and MM1.S.luc BTZ-resistant cells. Band intensity was calculated with Image Lab Version 5.2.1. (D) Cell survival assay with 5TGM1.luc and (E) BTZ-resistant 5TGM1.luc cells. (F) MM1.S cell line was exposed to CCF642-34, and BTZ for 72 h for synergistic drug combination test according to Chou and Talalay method. If the […] remained less than 1, the two drugs were determined as synergistic. […] The number of colony-forming units were plotted for each treatment.
(§1) Cell viability assay: Cell viability was measured in 96 well culture plates (2×10^4 cells/well) using CellTiter-Glo® Luminescent Cell Viability Assay (Promega, Madison, WI, USA) according to the manufacturer's protocol.

[5] = test system: BTZ-resistant MM1.S cells; experiment: Cell viability assay, BTZ-resistant MM1.S; assay type: cell-based, human; details: Homo sapiens, MM1.S; MM1S.luc BTZ; read-out: IC50 concentration
Method: Cells and reagents: MM1.S-luc-BTZ (BTZ®)-resistant cell line was made in our laboratory. Starting with 1 nM concentration, MM1.S-luc cells were treated with BTZ and exposed continuously for 5 days and removed for 2 days before re-exposure to the drug until the growth of the cells mimicked the parental cell line. Incremental increase of the drug was applied until the concentration of 8 nM was reached. […] BTZ was procured from Millennium Pharmaceuticals Inc. All cell lines that are used in this study and their detailed information are shown in table 1 below.
as §1

MM1.S cells [6] = experiment: ER stress response and apoptosis markers by immunoblotting; assay type: cell-based, human; details: 3 μM, 4 h
Method: FIGS. 6A-6C provide graphs and images showing PDIA1 inhibition by CCF642 analogues induce acute endoplasmic reticulum (ER) stress response and lead to apoptosis. Multiple myeloma cells (MM1.S) were treated with 3 μM of CCF642, -34, -37, -39, -34-A, and Tunicamycin (as a control). The status of ER sensors (XBP-1S, IRE1α oligomerization, and induction of C/EBP homology protein (CHOP)) along with apoptosis markers (cleaved caspase 3 and PARP1) were monitored. (A) MM1.S cells were treated for 4 h with CCF642 and its indicated analogues. (B) MM1.S cells were treated with CCF642-34 in a time course. (C) MM1.S, MM1.S.luc, and BTZ-resistant MM1.S.luc cells were stained with the H2DCFDA ROS detection and then treated with 2.5 μM CCF642-34 up to 4 h.
Immunoblotting: Immunoblotting was performed as described previously (Dallas et al., Blood, 93, 1697-1706 (1999)) using primary antibodies against PDIA1 (Cat #3501), XBP1-S (Cat #12782); IRE1α (Cat #3294), C/EBP homologous protein (CHOP) (Cat #5554), Caspase-3 (Cat #9665), PARP1 (Cat #9542), and GAPDH (Cat #3683) purchased from Cell Signaling Technology, Inc. (Danvers, MA, USA) and used at 1:1000 dilution, unless mentioned otherwise.

SMILES: COc1ccc(N2C(=O)/C(=C\c3ccc([N+](=O)[O-])s3)SC2=S)cc1 [CCF642, reference compound]
- potency in restricting colony formation of RPMI-8226 compared to CD34+ HSPCs [1]: ~20 fold
- number of downregulated genes (MM1.S cells [2]): 257 genes
- number of upregulated genes (MM1.S cells [2]): 311 genes
- number of genes with changed expression compared to vehicle control (MM1.S cells [2]; 2-fold change, p less than 0.05): 568 genes
- binding selectivity of CCF642, as reported previously (PDIA1): off-target bindings in addition to its binding to PDIA1
- IC50 (PDI): sub-micromolar
- solubility [3]: insolubility

SMILES: CC(C)C[C@H](NC(=O)[C@H](Cc1ccccc1)NC(=O)c1cnccn1)B(O)O [Bortezomib, reference compound]
- IC50 (MM1.S cells [4]): 2 nM
- IC50 [5]: 8 nM

SMILES: O=C(CCC1CNc2ccccc21)NCCCOc1ccc(N2C(=O)/C(=C/c3ccc([N+](=O)[O-])s3)SC2=S)cc1 (stereo not shown) [CCF642-34A]
- ER stress response (induction of XBP-1S and CHOP) (MM1.S cells [6]): failed to induce acute ER stress response
